Reference: US20100215588A1, “THERAPEUTIC DELIVERY OF INHIBITORY NUCLEIC ACID MOLECULES TO THE RESPIRATORY SYSTEM” (priority 2007, published 2010)

Assay: I5NP siRNA concentration and non-compartmental pharmacokinetics in plasma after single oronasal inhalation (hybridisation assay)
Format: in vivo, cynomolgus monkeys
Settings: for tmax: Treatment 1 (I5NP only), single oronasal inhalation; for AUC0-inf / AUC0-tlast / Cmax / Extrapolation (AUC0-inf − AUC0-tlast)/AUC0-inf × 100 / kel / t1/2 / tlast: Treatment 1, single oronasal inhalation
Protocol: Male cynomolgus monkeys were administered single oronasal inhalation doses of a nebulised aerosol formulation of fluorescent-labelled REDD14Cy3.5 and/or I5NP siRNAs. Following dosing, the concentration of I5NP in plasma, the non-compartmental disposition kinetics of I5NP in plasma, the qualitative distribution of REDD14Cy3.5 in lungs and the semi-quantitative distribution of I5NP in lungs were determined.
Three separate dose treatments were administered to the animals as detailed below. The theoretical inhalation achieved doses of siRNA were calculated from the respiratory minute volume (measured during pre-treatment), the aerosol concentration of the test article (measured gravimetrically during pre-treatment calibration of the nebuliser), the treatment time, the total aerosol depostion fraction (assumed as 100%) and the animal bodyweights on the day before each dose administration.
(§1) On Day 1 of the study, four of the available monkeys (101 to 104) were administered a target dose of 35 mg/kg of I5NP siRNA via an oronasal mask as a nebulized aerosol generated by the Aeroneb device. A 2.0 L/min dilution airflow was used. The total dose administered was calculated, based on the bodyweights and measured respiratory minute volumes of the animals, and on the achieved output of the Aeroneb device using the formulation concentration of 40 mg/mL. The administered dose was adjusted by changing the exposure times for the animals. Animals received treatment sequentially, rather than in parallel, using the single calibrated test Aeroneb.
as §1, with “35” for “1”, “Study,” for “study, four of”, “three remaining main study animals (103” for “available monkeys (101”, “105)” for “104)”, “animals.” for “animals. Animals received treatment sequentially, rather than in parallel, using the single calibrated test Aeroneb.”
A blood sample (0.5 mL) was collected at pre-dose, and at 15 minutes, 30 minutes, 1, 2, 4, 6, 8 and 24 hours post-end of inhalation, from the left or right femoral vein of each animal that received the full dose (101, 102, 103 and 106). Blood was collected into tubes with K3EDTA as the anticoagulant and then placed on wet ice pending centrifugation.
A blood sample (0.5 mL) was collected at pre-dose and at 15 minutes post-end of inhalation from all animals (103, 104 and 105). A third blood sample was collected at 6 h (animal 103), 24 h (animal 104) or 72 h (animal 105) post-end of inhalation. Blood was collected, into K3EDTA tubes, from the left or right femoral vein of each animal (103 to 105), and placed on wet ice pending centrifugation.
Blood was kept on wet ice until it was centrifuged, at 4° C. and 2700 rpm for approximately 10 minutes, to separate plasma (within 1 hour of collection). Plasma samples were separated, transferred to appropriately labeled vials and placed on dry ice prior to storage at approximately −80° C.
Following Treatments 1 and 3, plasma samples were analyzed for I5NP siRNA concentration at PCS-MTL according to a validated hybridization method.
Non-compartmental disposition kinetics in plasma was performed on concentration data from individual animals following Treatment 1. The following parameters were estimated as applicable:
All pharmacokinetic parameters were estimated using WinNonlin version 3.2 computer software.

[1] = Treatment 1, 8 hours post-end of dose
[2] = plasma, Treatment 1, mean of 4 animals

For “I5NP: exemplary p53 inhibiting siRNA; sense GAGAAUAUUUCACCCUUCA, antisense UGAAGGGUGAAAUAUUCUC (chemistry not given here)”, the “highest mean concentration in plasma” value (Treatment 1, 15 minutes post-end of dosing, mean of 4 animals) was 21.0 ± 5.01 ng/mL, the mean plasma level [1] was 0.588 ± 0.561 ng/mL and the “plasma level as % of the Cmax value” [1] was “approximately 3%”. For the same substance, the plasma concentration (Treatment 1, 24 h post-end of dosing, animal 101) was 0.205 ng/mL, the “plasma concentration (below limit of quantitation)” value (Treatment 1, after 8 h or 24 h post-end of dosing (at 24 h all animals other than 101)) was less than 0.10 ng/mL and the “absorption into the systemic circulation from the inhaled dose” value (Treatment 1, oronasal inhalation) was “rapid”. It also gave a mean plasma concentration (Treatment 3, 15 minutes post-end of dose) of 40.3 ± 14.5 ng/mL, a plasma level (Treatment 3, 6 h post-end of dose, animal 103) of 11.1 ng/mL and a plasma level (Treatment 3, 24 h post-end of dose, animal 104) of 0.192 ng/mL. The “plasma concentration (less than limit of quantitation)” value (Treatment 3, 72 hours post-end of dosing, animal 105) was less than 0.10 ng/mL, the tmax (plasma, animal 101) was 0.5 h and the tmax (plasma, animal 102) was 0.5 h. For the same substance, the tmax (plasma, animal 103) was 0.42 h, the tmax (plasma, animal 106) was 0.42 h and the AUC0-inf (plasma, animal 101) was 72.0 ng·h/mL. For the same substance, the AUC0-tlast (plasma, animal 101) was 70.3 ng·h/mL, the Cmax (plasma, animal 101) was 26.3 ng/mL and the “Extrapolation (AUC0-inf − AUC0-tlast)/AUC0-inf × 100” value (shortened to “Extrapolation”) (plasma, animal 101) was 2.36%. The kel (plasma, animal 101) was 0.121 h⁻¹, the t1/2 (plasma, animal 101) was 5.74 h and the tlast (plasma, animal 101) was 24.25 h. It also gave an AUC0-inf (plasma, animal 102) of 27.3 ng·h/mL, an AUC0-tlast (plasma, animal 102) of 27.1 ng·h/mL and a Cmax (plasma, animal 102) of 18.0 ng/mL. For the same substance, the “Extrapolation” value (plasma, animal 102) was 0.824%, the kel (plasma, animal 102) was 0.467 h⁻¹ and the t1/2 (plasma, animal 102) was 1.48 h. It also gave a tlast (plasma, animal 102) of 8.25 h, an AUC0-inf (plasma, animal 103) of 46.8 ng·h/mL and an AUC0-tlast (plasma, animal 103) of 42.4 ng·h/mL. The Cmax (plasma, animal 103) was 24.0 ng/mL, the “Extrapolation” value (plasma, animal 103) was 9.40% and the kel (plasma, animal 103) was 0.252 h⁻¹. The t1/2 (plasma, animal 103) was 2.75 h, the tlast (plasma, animal 103) was 8.17 h and the AUC0-inf (plasma, animal 106) was 16.1 ng·h/mL. For the same substance, the AUC0-tlast (plasma, animal 106) was 15.8 ng·h/mL, the Cmax (plasma, animal 106) was 15.6 ng/mL and the “Extrapolation” value (plasma, animal 106) was 2.26%. For the same substance, the kel (plasma, animal 106) was 0.277 h⁻¹, the t1/2 (plasma, animal 106) was 2.50 h and the tlast (plasma, animal 106) was 8.17 h. The “mean AUC0-inf” value [2] was 40.6 ± 24.5 ng·h/mL, the “mean AUC0-tlast” value [2] was 38.9 ± 23.6 ng·h/mL and the mean kel [2] was 0.279 ± 0.143 h⁻¹. For the same substance, the “mean t1/2” value [2] was 3.12 ± 1.83 h.
